Test results: ChEMBL document CHEMBL3227994, “Novel application of proton nuclear magnetic resonance spectroscopy in the identification of 2'-chloronordiazepam metabolites in the dog” (J Med Chem, 1979)

Columns and labels:
[1] = Drug excretion in Beagle dog urine at 10 mg/kg, po measured within 6 days by liquid scintillation spectrophotometric analysis; format: ADME, organism-based, Canis lupus familiaris; design: dose 10 mg/kg, route oral; settings: in vivo, 144 h
[2] = Drug excretion in Beagle dog feces at 10 mg/kg, po measured within 6 days by liquid scintillation spectrophotometric analysis; format: ADME, organism-based, Canis lupus familiaris; design: dose 10 mg/kg, route oral; settings: in vivo, 144 h
[3] = Drug excretion in Beagle dog urine at 10 mg/kg, po measured within 3 days by liquid scintillation spectrophotometric analysis; format: ADME, organism-based, Canis lupus familiaris; design: dose 10 mg/kg, route oral; settings: in vivo, 72 h
[4] = Drug metabolism in Beagle dog urine assessed as formation of lorazepam at 10 mg/kg, po after 4 days by TLC analysis; format: ADME, organism-based, Canis lupus familiaris; design: dose 10 mg/kg, route oral; settings: in vivo, 96 h
[5] = Drug metabolism in Beagle dog urine assessed as formation of 2'-chloro-4'-hydroxy nordiazepam at 10 mg/kg, po after 4 days by TLC analysis; format: ADME, organism-based, Canis lupus familiaris; design: dose 10 mg/kg, route oral; settings: in vivo, 96 h
[6] = Drug metabolism in Beagle dog urine assessed as formation of 2'-chloro-9-hydroxy nordiazepam at 10 mg/kg, po after 4 days by TLC analysis; format: ADME, organism-based, Canis lupus familiaris; design: dose 10 mg/kg, route oral; settings: in vivo, 96 h
[7] = Drug excretion in Beagle dog urine assessed as nonconjugated form of compound at 10 mg/kg, po after 4 days by two-dimensional TLC analysis; format: ADME, organism-based, Canis lupus familiaris; design: dose 10 mg/kg, route oral; settings: read-out: Drug excretion
[8] = Drug excretion in Beagle dog urine assessed as nonconjugated form of lorazepam at 10 mg/kg, po after 4 days by two-dimensional TLC analysis; format: ADME, organism-based, Canis lupus familiaris; design: dose 10 mg/kg, route oral; settings: in vivo, 96 h
[9] = Drug excretion in Beagle dog urine assessed as conjugated form of lorazepam at 10 mg/kg, po after 4 days by two-dimensional TLC analysis; format: ADME, organism-based, Canis lupus familiaris; design: dose 10 mg/kg, route oral; settings: in vivo, 96 h
[10] = Drug excretion in Beagle dog urine assessed as nonconjugated form of 2'-chloro-4'-hydroxy nordiazepam at 10 mg/kg, po after 4 days by two-dimensional TLC analysis; format: ADME, organism-based, Canis lupus familiaris; design: dose 10 mg/kg, route oral; settings: in vivo, 96 h
[11] = Drug excretion in Beagle dog urine assessed as conjugated form of 2'-chloro-4'-hydroxy nordiazepam at 10 mg/kg, po after 4 days by two-dimensional TLC analysis; format: ADME, organism-based, Canis lupus familiaris; design: dose 10 mg/kg, route oral; settings: in vivo, 96 h
[12] = Drug excretion in Beagle dog urine assessed as nonconjugated form of 2'-chloro-9-hydroxy nordiazepam at 10 mg/kg, po after 4 days by two-dimensional TLC analysis; format: ADME, organism-based, Canis lupus familiaris; design: dose 10 mg/kg, route oral; settings: in vivo, 96 h
[13] = Drug excretion in Beagle dog urine assessed as conjugated form of 2'-chloro-9-hydroxy nordiazepam at 10 mg/kg, po after 4 days by two-dimensional TLC analysis; format: ADME, organism-based, Canis lupus familiaris; design: dose 10 mg/kg, route oral; settings: in vivo, 96 h
[14] = Drug excretion in Beagle dog feces assessed as nonconjugated form of compound at 10 mg/kg, po after 4 days by two-dimensional TLC analysis; format: ADME, organism-based, Canis lupus familiaris; design: dose 10 mg/kg, route oral; settings: faeces, read-out: Drug excretion
[15] = Drug excretion in Beagle dog feces assessed as conjugated form of compound at 10 mg/kg, po after 4 days by two-dimensional TLC analysis; format: ADME, organism-based, Canis lupus familiaris; design: dose 10 mg/kg, route oral; settings: in vivo, 96 h
[16] = Drug excretion in Beagle dog feces assessed as nonconjugated form of lorazepam at 10 mg/kg, po after 4 days by two-dimensional TLC analysis; format: ADME, organism-based, Canis lupus familiaris; design: dose 10 mg/kg, route oral; settings: in vivo, 96 h
[17] = Drug excretion in Beagle dog feces assessed as conjugated form of lorazepam at 10 mg/kg, po after 4 days by two-dimensional TLC analysis; format: ADME, organism-based, Canis lupus familiaris; design: dose 10 mg/kg, route oral; settings: in vivo, 96 h
[18] = Drug excretion in Beagle dog feces assessed as nonconjugated form of 2'-chloro-4'-hydroxy nordiazepam at 10 mg/kg, po after 4 days by two-dimensional TLC analysis; format: ADME, organism-based, Canis lupus familiaris; design: dose 10 mg/kg, route oral; settings: in vivo, 96 h
[19] = Drug excretion in Beagle dog feces assessed as conjugated form of 2'-chloro-4'-hydroxy nordiazepam at 10 mg/kg, po after 4 days by two-dimensional TLC analysis; format: ADME, organism-based, Canis lupus familiaris; design: dose 10 mg/kg, route oral; settings: in vivo, 96 h
[20] = Drug excretion in Beagle dog feces assessed as nonconjugated form of 2'-chloro-9-hydroxy nordiazepam at 10 mg/kg, po after 4 days by two-dimensional TLC analysis; format: ADME, organism-based, Canis lupus familiaris; design: dose 10 mg/kg, route oral; settings: in vivo, 96 h
[21] = Drug excretion in Beagle dog feces assessed as conjugated form of 2'-chloro-9-hydroxy nordiazepam at 10 mg/kg, po after 4 days by two-dimensional TLC analysis; format: ADME, organism-based, Canis lupus familiaris; design: dose 10 mg/kg, route oral; settings: in vivo, 96 h
[22] = Drug excretion in dog urine assessed as conjugated form of lorazepam at 10 mg/kg, po; format: ADME, organism-based, Canis lupus familiaris; design: dose 10 mg/kg, route oral; settings: in vivo
[23] = Drug excretion in dog urine assessed as conjugated form of lorazepam at 10 mg/kg, iv; format: ADME, organism-based, Canis lupus familiaris; design: dose 10 mg/kg, route intravenous; settings: in vivo
[24] = Retention time of the compound; format: physicochemical

Compound `O=C1CN=C(c2ccccc2Cl)c2cc(Cl)ccc2N1` [DELORAZEPAM] has a Drug excretion [1] of 60.5 %ID, a Drug excretion [2] of 28.5 %ID and a Drug excretion [3] of 58 %ID. It also gave a Drug metabolism [4] of 10.7 mg.equiv, a Drug metabolism [5] of 1.6 mg.equiv and a Drug metabolism [6] of 1.7 mg.equiv. For the same compound, the dose excreted at 96 h [7] was 1.1%, the Drug excretion [8] was 0.4 %ID and the Drug excretion [9] was 15.3 %ID. The Drug excretion [10] was 1 %ID, the Drug excretion [11] was 2.8 %ID and the Drug excretion [12] was 1.1 %ID. The Drug excretion [13] was 2.5 %ID, the dose excreted at 96 h [14] was 2.7% and the Drug excretion [15] was 3.8 %ID. For the same compound, the Drug excretion [16] was 4.2 %ID, the Drug excretion [17] was 19.9 %ID and the Drug excretion [18] was 1.5 %ID. The Drug excretion [19] was 5.3 %ID, the Drug excretion [20] was 3.7 %ID and the Drug excretion [21] was 7.3 %ID. The Drug excretion [22] was 13 %ID and the Drug excretion [23] was 16 %ID.

With `O=C1Nc2ccc(Cl)cc2C(c2ccccc2Cl)=NC1O` (centres undefined) [LORAZEPAM] the Retention_time [24] was 3.8 min.
